The nature of series [1]: Stability in liver microsomes (monkey). In kind it is in vitro ADME, cynomolgus monkeys. To be noted: c (cynomolgus monkey liver microsomes), 0.5 mg/mL, read-out: MMS Clint. How it is done: (§1) The purpose of this study was to evaluate the phase I metabolic stability of the assay sample in liver microsomes from CD-1 mice, Sprague-Dawley (SD) rats, beagle dogs, cynomolgus monkeys, and human.
(§2) The animal and human liver microsomes used in this assay system were purchased from Xenotech, Corning, or other qualified suppliers.
(§3) Preparation of buffer: 73.21 g of potassium phosphate dibasic trihydrate and 10.78 g of potassium dihydrogen phosphate were dissolved in 4000 mL of ultrapure water. The pH of the solution was adjusted to the range of 7.40 ± 0.10 using 10.0% phosphoric acid or 1.00 M potassium hydroxide. Its final concentration was 100 mM.
(§4) Preparation of working solutions: An assay sample powder was prepared into a 10.0 mM stock solution with DMSO, and then further diluted with a suitable organic solvent. The control compounds testosterone, diclofenac, and propafenone were prepared into 10.0 mM stock solutions using DMSO, and then further diluted with a suitable organic solvent.
(§5) Preparation of liver microsome solution: Microsomes of various species were diluted with 100 mM potassium phosphate buffer to a working solution of 0.56 mg/mL. The final concentration of microsomes in the reaction system was 0.500 mg/mL. Detailed preparation procedures were described in the experimental records.
(§6) Preparation of reduced nicotinamide adenine dinucleotide phosphate (NADPH) solution: An appropriate amount of reduced nicotinamide adenine dinucleotide phosphate was dissolved in magnesium chloride solution, and the mixture was shaken to mix well. The final concentrations in the reaction system were 1.00 mM NADPH and 1.00 mM magnesium chloride, respectively. Detailed preparation procedures were described in the experimental records.
(§7) Preparation of stop solution: The stop solution was prepared using acetonitrile containing internal standards (tolbutamide and labetalol). The prepared stop solution was stored at 2.0 to 8.0 °C in a refrigerator. Detailed preparation procedures were described in the experimental records. […]

The nature of series [2]: Plasma protein binding rate, equilibrium dialysis (monkey plasma). To be noted: c (cynomolgus monkey plasma), dialysis 4 hours at 37 °C, read-out: Unbound PPB%. In kind it is in vitro ADME, cynomolgus monkeys. How it is done:
The protein binding rates of the compounds in the plasma of CD-1 mice, Sprague-Dawley rats, beagle dogs, cynomolgus monkeys, and human were determined using equilibrium dialysis method.
Commercially available plasma, dual-layer dialysis membrane, and equilibrium dialysis device.
The dual-layer dialysis membrane was soaked in ultrapure water for about 1 hour, removed and then divided into two parts. It was then soaked in an ethanol:water (20:80, v:v) solution for 20 minutes or placed at 2 to 8 °C, and it was valid for 1 month. Before starting the assay, the dialysis membrane was rinsed twice with ultrapure water and then soaked in ultrapure water for another 20 minutes for later use.
On the day of assay, the frozen plasma of CD-1 mice, Sprague-Dawley rats, beagle dogs, cynomolgus monkeys, and human was thawed in running cold tap water. After the plasma was completely thawed, the plasma was centrifuged at 3220×g for 5 minutes, and the suspended substances and precipitates in it were removed. The pH of the plasma was determined. The plasma with a pH in the range of 7.4 ± 0.1 was directly used, or the plasma with a pH in the range of 7.4 ± 0.1 after an adjustment with 1% phosphoric acid or 1M sodium hydroxide was used.
Preparation process of plasma samples: 597 µL of blank plasma from each of the above five species was taken, respectively. 3 µL of a compound or warfarin working solution was added, and the mixture was mixed thoroughly to give a plasma sample with a compound concentration of 2 µM and a warfarin concentration of 2 µM (n=1). The concentration of the organic phase DMSO was 0.5%. The sample was thoroughly mixed before proceeding to the next step.
Preparation process of T0 samples: 50 µL of a plasma sample containing the compound and warfarin was transferred to a sample receiving plate (n=3), and 50 µL of blank PBS was immediately added. Then, 500 µL of stop solution was added to the T0 sample of the compound and warfarin, and the mixture was stored at 2 to 8 °C, waiting to be processed later together with other dialysis-processed samples.
Dialysis process of plasma samples: 100 µL of a compound (2 µM) and warfarin (2 µM) plasma sample was added to the donor of each dialysis well (n=3), and 100 µL of blank PBS was added to the corresponding receiver of the dialysis well. The dialysis plate was placed in a 5% CO2 incubator, and incubated at 37 °C with shaking at approximately 100 rpm for 4 hours.
After the dialysis was completed, 50 µL of dialysis-processed PBS sample and dialysis-processed plasma sample (n=3) were transferred to a new 96-well plate (sample receiving plate). The corresponding volume of the corresponding blank plasma or PBS was added to the sample to make the final volume of each sample well 100 µL, with a plasma to PBS volume ratio of 1:1. All the samples were analyzed by LC-MS/MS after protein precipitation.
The formulas for calculating the unbound fraction (%Unbound), bound fraction (%Bound) and recovery fraction (%Recovery) of a compound are as follows: %Unbound = 100 ×F / T %Bound = 100 - %Unbound %Recovery = 100 ×(F + T)/ T0 wherein F is the concentration of the compound at the receiver of dialysis; T is the concentration of the compound at the supply end of dialysis; and T0 is the concentration of the compound in the plasma at time zero.
(In general: In equilibrium dialysis free small molecules cross a membrane that holds back macromolecules.)

Series [3] can be described thus: Stability in liver microsomes (dog). In kind it is in vitro ADME, beagle dogs. To be noted: d (beagle dog liver microsomes), 0.5 mg/mL, read-out: MMS Clint. The protocol:
as §1, §2, §3, §4, §5, §6, §7

Molecules are shown by their SMILES. Bounds are passed on as bounds.

Regarding `CC(C)(C)CC(=O)Nc1nc2c(F)cc(C#N)cn2c1C12CC(C1)C2` [Compound 5], the results for the CLint scaled at 1 µM in series [1] and in series [3] were 15.3 mL/min/kg and less than 13.8 mL/min/kg, respectively. Moreover, the fraction unbound at 4 h, 2 µM in series [2] came to 0.159.

For the molecule `CC(C)(C)CC(=O)Nc1nc2c(F)cc(C#N)cn2c1C1=CCCC1` [Compound 3], the CLint scaled at 1 µM was 129 mL/min/kg in series [1] and less than 14 mL/min/kg in series [3]. The fraction unbound at 4 h, 2 µM in series [2] turned out to be 0.134.

On to `CC(C)(C)CC(=O)Nc1nc2c(F)cc(C#N)cn2c1-c1ccc(OC(F)(F)F)cc1` [Compound 1], for which the CLint scaled at 1 µM was 130 mL/min/kg in series [1] and 16 mL/min/kg in series [3]. Also, the fraction unbound at 4 h, 2 µM in series [2] was 0.072.

Source of the values: patent EP4786454A1, “HETEROARYL DERIVATIVE AND USE THEREOF” (priority 2023, dated 2025).
